From patent publication US8987258B2 (priority 2008, dated 2015) come the findings set out here.

The assay deals with T1, SIRT1 (Homo sapiens, UniProt Q96EB6).
T1 sequence (Q96EB6 1-747): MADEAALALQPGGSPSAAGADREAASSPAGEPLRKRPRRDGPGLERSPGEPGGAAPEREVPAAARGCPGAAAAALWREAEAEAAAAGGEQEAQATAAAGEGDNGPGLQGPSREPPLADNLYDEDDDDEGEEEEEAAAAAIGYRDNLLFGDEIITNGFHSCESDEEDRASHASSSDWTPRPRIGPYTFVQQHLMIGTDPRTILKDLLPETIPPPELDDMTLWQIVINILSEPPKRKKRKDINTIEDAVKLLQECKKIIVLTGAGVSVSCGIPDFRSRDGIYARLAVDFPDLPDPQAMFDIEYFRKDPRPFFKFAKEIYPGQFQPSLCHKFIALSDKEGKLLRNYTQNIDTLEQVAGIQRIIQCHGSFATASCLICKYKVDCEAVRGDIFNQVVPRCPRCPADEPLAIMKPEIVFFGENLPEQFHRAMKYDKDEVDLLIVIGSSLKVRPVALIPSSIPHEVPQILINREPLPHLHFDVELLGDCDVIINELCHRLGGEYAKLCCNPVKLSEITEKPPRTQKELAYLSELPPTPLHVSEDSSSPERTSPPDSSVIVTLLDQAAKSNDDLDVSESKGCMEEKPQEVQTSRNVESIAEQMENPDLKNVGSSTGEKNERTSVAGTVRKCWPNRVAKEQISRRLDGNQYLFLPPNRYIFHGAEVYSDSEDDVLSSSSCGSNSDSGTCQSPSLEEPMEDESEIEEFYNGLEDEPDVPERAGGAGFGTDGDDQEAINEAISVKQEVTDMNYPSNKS
Nature of the assay: Mass spectrometry based SIRT1 deacetylase activation assay. In kind it is biochemical. Conditions: for EC1.5 μM: 0.5 μM peptide substrate, 120 μM βNAD+, 10 nM SIRT1, 25 min, 25° C.; for Emax: 25 min, mass spectrometry assay, read-out: % Fold Act. (percent maximum fold activation). An excerpt:
A mass spectrometry based assay was used to identify modulators of SIRT1 activity. The mass spectrometry based assay utilizes a peptide having 20 amino acid residues as follows: Ac-EE-K(biotin)-GQSTSSHSK(Ac)NleSTEG-K(5TMR)-EE-NH2 (SEQ ID NO: 1) wherein K(Ac) is an acetylated lysine residue and Nle is a norleucine. The peptide is labeled with the fluorophore 5TMR (excitation 540 nm/emission 580 nm) at the C-terminus. The sequence of the peptide substrate is based on p53 with several modifications. In addition, the methionine residue naturally present in the sequence was replaced with the norleucine because the methionine may be susceptible to oxidation during synthesis and purification.
The mass spectrometry assay is conducted as follows: 0.5 μM peptide substrate and 120 μM βNAD^+ is incubated with 10 nM SIRT1 for 25 minutes at 25° C. in a reaction buffer (50 mM Tris-acetate pH 8, 137 mM NaCl, 2.7 mM KCl, 1 mM MgCl2, 5 mM DTT, 0.05% BSA). Test compounds may be added to the reaction as described above. […] After the 25 minute incubation with SIRT1, 10 μL of 10% formic acid is added to stop the reaction. Reactions are sealed and frozen for later mass spec analysis. Determination of the mass of the substrate peptide allows for precise determination of the degree of acetylation (i.e. starting material) as compared to deacetylated peptide (product).
A control for inhibition of sirtuin activity is conducted by adding 1 μL of 500 mM nicotinamide as a negative control at the start of the reaction (e.g., permits determination of maximum sirtuin inhibition). A control for activation of sirtuin activity is conducted using 10 nM of sirtuin protein, with 1 μL of DMSO in place of compound, to determine the amount of deacetylation of the substrate at a given timepoint within the linear range of the assay. This timepoint is the same as that used for test compounds and, within the linear range, the endpoint represents a change in velocity.
For the above assay, SIRT1 protein was expressed and purified as follows. […] The protein was expressed by induction with 1 mM IPTG as an N-terminal His-tag fusion protein at 18° C. overnight and harvested at 30,000×g. Cells were lysed with lysozyme in lysis buffer (50 mM Tris-HCl, 2 mM Tris[2-carboxyethyl]phosphine (TCEP), 10 μM ZnCl2, 200 mM NaCl) and further treated with sonication for 10 min for complete lysis. The protein was purified over a Ni-NTA column (Amersham) and fractions containing pure protein were pooled, concentrated and run over a sizing column (Sephadex S200 26/60 global). The peak containing soluble protein was collected and run on an Ion-exchange column (MonoQ). Gradient elution (200 mM-500 mM NaCl) yielded pure protein. This protein was concentrated and dialyzed against dialysis buffer (20 mM Tris-HCl, 2 mM TCEP) overnight. The protein was aliquoted and frozen at −80° C. until further use.

Some results are limits rather than exact numbers.

`O=C(Nc1cccc2c(=O)cc(-c3ccccc3C(F)(F)F)oc12)c1cocn1` [Compound 272]: the “EC1.5 μM” value was “B (EC1.5 1-25 μM)” and the Emax is above 200%.

For `Cc1ccccc1-c1cc(=O)c2cccc(NC(=O)c3cnccn3)c2o1` [Compound 273, N-(4-oxo-2-o-tolyl-4H-chromen-8-yl)pyrazine-2-carboxamide], the “EC1.5 μM” value is reported as “A (EC1-5<1.0)” and the Emax was above 200%.

With `Cc1ccccc1-c1cc(=O)c2cccc(NC(=O)c3cscn3)c2o1` [Compound 274], the “EC1.5 μM” value is “C (EC1.5>25 μM)” and the Emax is below 200%.

Regarding `Cc1cnc(NC(=O)c2cccc3c(=O)cc(-c4ccccc4OC(F)(F)F)oc23)s1` [Compound 275], the “EC1.5 μM” value is reported as “C (EC1.5>25 μM)” and the Emax is below 200%.

For the compound `Cc1cnc(NC(=O)c2cccc3c(=O)cc(-c4ccccc4C(F)(F)F)oc23)s1` [Compound 276], the “EC1.5 μM” value was “C (EC1.5>25 μM)” and the Emax was below 200%.

Consider `Cn1cncc1C(=O)Nc1cccc2c(=O)cc(-c3ccccc3C(F)(F)F)oc12` [Compound 277], for which the “EC1.5 μM” value is given as “B (EC1.5 1-25 μM)” and the Emax is above 200%.

With `O=C(Nc1cccc2c(=O)cc(-c3ccccc3F)oc12)c1cnccn1` [Compound 278], the “EC1.5 μM” value is listed as “C (EC1.5>25 μM)” and the Emax was below 200%.

`O=C(Nc1cccc2c(=O)cc(-c3ccccc3F)oc12)c1cscn1` [Compound 279]: the “EC1.5 μM” value is “C (EC1.5>25 μM)” and the Emax was below 200%.

With `O=C(Nc1cccc2c(=O)cc(-c3ccccc3Cl)oc12)c1cnccn1` [Compound 280], the “EC1.5 μM” value is reported as “A (EC1-5<1.0)” and the Emax is above 200%.

Take `O=C(Nc1cccc2c(=O)cc(-c3ccccc3Cl)oc12)c1cscn1` [Compound 281]: the “EC1.5 μM” value is listed as “A (EC1-5<1.0)” and the Emax was above 200%.

Turning to `O=C(Nc1cccc2c(=O)cc(-c3ccccc3C(F)F)oc12)c1cnccn1` [Compound 282], the “EC1.5 μM” value was “A (EC1-5<1.0)” and the Emax is above 200%.

On to `O=C(Nc1cccc2c(=O)cc(-c3ccccc3C(F)F)oc12)c1cscn1` [Compound 283], for which the “EC1.5 μM” value was “A (EC1-5<1.0)” and the Emax is above 200%.

On to `Cc1cnc(NC(=O)c2cccc3c(=O)cc(-c4ccccc4C(F)F)oc23)s1` [Compound 284], for which the “EC1.5 μM” value is listed as “C (EC1.5>25 μM)” and the Emax was below 200%.

In the case of `Cc1cnc(NC(=O)c2cccc3c(=O)cc(-c4ccccc4C(C)C)oc23)s1` [Compound 285], the “EC1.5 μM” value is reported as “C (EC1.5>25 μM)” and the Emax is below 200%.

`CC(C)c1ccccc1-c1cc(=O)c2cccc(NC(=O)c3cnccn3)c2o1` [Compound 286]: the “EC1.5 μM” value is listed as “A (EC1-5<1.0)” and the Emax is above 200%.

Regarding `CC(C)c1ccccc1-c1cc(=O)c2cccc(NC(=O)c3cscn3)c2o1` [Compound 287], the “EC1.5 μM” value was “B (EC1.5 1-25 μM)” and the Emax was above 200%.

Regarding `O=C(Nc1cccc2c(=O)cc(-c3cccc(F)c3F)oc12)c1cnccn1` [Compound 288], the “EC1.5 μM” value was “B (EC1.5 1-25 μM)” and the Emax was below 200%.

`O=C(Nc1cccc2c(=O)cc(-c3cccc(F)c3F)oc12)c1cscn1` [Compound 289]: the “EC1.5 μM” value is “C (EC1.5>25 μM)” and the Emax was below 200%.

In the case of `O=C(Nc1cccc2c(=O)cc(-c3c(F)cccc3F)oc12)c1cnccn1` [Compound 290], the “EC1.5 μM” value was “C (EC1.5>25 μM)” and the Emax was below 200%.

Take `O=C(Nc1cccc2c(=O)cc(-c3c(F)cccc3F)oc12)c1cscn1` [Compound 291]: the “EC1.5 μM” value was “B (EC1.5 1-25 μM)” and the Emax was below 200%.

In the case of `O=C(Nc1cccc2c(=O)cc(-c3cc(F)ccc3F)oc12)c1cnccn1` [Compound 292], the “EC1.5 μM” value was “C (EC1.5>25 μM)” and the Emax was below 200%.

`O=C(Nc1cccc2c(=O)cc(-c3cc(F)ccc3F)oc12)c1cscn1` [Compound 293]: the “EC1.5 μM” value is “C (EC1.5>25 μM)” and the Emax is below 200%.

Take `Cc1cnc(NC(=O)c2cccc3c(=O)cc(-c4ccccc4OC(F)F)oc23)s1` [Compound 294]: the “EC1.5 μM” value was “B (EC1.5 1-25 μM)” and the Emax was below 200%.

Consider `Cc1cnc(NC(=O)c2cccc3c(=O)cc(-c4cccc(F)c4F)oc23)s1` [Compound 295], for which the “EC1.5 μM” value was “C (EC1.5>25 μM)” and the Emax was below 200%.

With `O=C(Nc1cccc2c(=O)cc(-c3c(F)cccc3Cl)oc12)c1cnccn1` [Compound 296], the “EC1.5 μM” value is recorded as “A (EC1-5<1.0)” and the Emax is above 200%.

For `O=C(Nc1cccc2c(=O)cc(-c3c(F)cccc3Cl)oc12)c1cscn1` [Compound 297], the “EC1.5 μM” value was “B (EC1.5 1-25 μM)” and the Emax is above 200%.

On to `O=C(Nc1cccc2c(=O)cc(-c3cccc(F)c3Cl)oc12)c1cnccn1` [Compound 298], for which the “EC1.5 μM” value is reported as “B (EC1.5 1-25 μM)” and the Emax is below 200%.

`O=C(Nc1cccc2c(=O)cc(-c3cccc(F)c3Cl)oc12)c1cscn1` [Compound 299]: the “EC1.5 μM” value is on record as “C (EC1.5>25 μM)” and the Emax was below 200%.

As to `O=C(Nc1cccc2c(=O)cc(-c3cc(F)ccc3Cl)oc12)c1cnccn1` [Compound 300], the “EC1.5 μM” value is “C (EC1.5>25 μM)” and the Emax is below 200%.

In the case of `O=C(Nc1cccc2c(=O)cc(-c3cc(F)ccc3Cl)oc12)c1cscn1` [Compound 301], the “EC1.5 μM” value is recorded as “C (EC1.5>25 μM)” and the Emax was below 200%.

As for `O=C(Nc1cccc2c(=O)cc(-c3c(Cl)cccc3Cl)oc12)c1cnccn1` [Compound 302], the “EC1.5 μM” value is given as “B (EC1.5 1-25 μM)” and the Emax is above 200%.

As to `O=C(Nc1cccc2c(=O)cc(-c3c(Cl)cccc3Cl)oc12)c1cscn1` [Compound 303], the “EC1.5 μM” value was “B (EC1.5 1-25 μM)” and the Emax is above 200%.

For the compound `Cc1cnc(NC(=O)c2cccc3c(=O)cc(-c4ccccc4S(C)(=O)=O)oc23)s1` [Compound 304], the “EC1.5 μM” value is reported as “C (EC1.5>25 μM)” and the Emax was below 200%.

For `Cc1cnc(NC(=O)c2cccc3c(=O)cc(-c4cccnc4C(F)(F)F)oc23)s1` [Compound 305, N-(5-methylthiazol-2-yl)-4-oxo-2-(2-(trifluoromethyl)pyridin-3-yl)-4H-chromene-8-carboxamide], the “EC1.5 μM” value was “C (EC1.5>25 μM)” and the Emax was below 200%.

Turning to `O=C(Nc1cccc2c(=O)cc(-c3cccnc3C(F)(F)F)oc12)c1cnccn1` [Compound 306, N-(4-oxo-2-(2-(trifluoromethyl)pyridin-3-yl)-4H-chromen-8-yl)pyrazine-2-carboxamide], the “EC1.5 μM” value is on record as “B (EC1.5 1-25 μM)” and the Emax is above 200%.

With `O=C(Nc1cccc2c(=O)cc(-c3cccnc3C(F)(F)F)oc12)c1cscn1` [Compound 307], the “EC1.5 μM” value is reported as “A (EC1-5<1.0)” and the Emax is above 200%.
